Literature values as cited in article PMC3322358 (Chemistry & biology, 2008).

System: CFTR
Conditions: ref Muanprasat et al., 2004

For `O=C(CNc1ccc2ccccc2c1)N/N=C/c1cc(Br)c(O)c(Br)c1O` [GlyH-101], the “time constant of CFTR channel block” value is given as 8 to 10 ms.
